Assay results published in US20240408093A1, “HETEROBIFUNCTIONAL COMPOUNDS AND THEIR USE IN TREATING DISEASE” (HALDA THERAPEUTICS OPCO, INC., priority 2022, published 2024).
Like-named read-outs stand apart in the source and are kept apart here.

Legend:
[1] = system: HEK293 cells (ATCC CRL-1573); assay: Cellular growth inhibition assay, HEK293 cells (Example 16); assay type: cell-based; conditions: Homo sapiens, 72 hours, CellTiter-Glo 2.0
Description: (§1) Exemplary compounds were tested for ability to inhibit the proliferation of HEK293 cells (ATCC CRL-1573) and HeLa cells (ATCC CCL-2).
(§2) HEK293 and HeLa cells were cultured in DMEM (Gibco 11995), supplemented with 10% Heat-inactivated FBS (Gibco A38400-01) and 1% Penicillin/Streptomycin (Gibco 15140-122) at 37° C. with 5% CO2 in a humidified tissue culture incubator. Cells were seeded at 500 cells/well in 384-well, Poly-D-lysine-treated blackplates (Perkin Elmer 6007710) in 25 μL media lacking selection for 18-24 hours. Plates were spun at 300 g for 30 seconds and stored in the incubator overnight. After 24 hours, a 25 μL aliquot of compound-containing medium was added in each well, at a final top concentration of 10 μM test compound, with 3-fold dilutions, using DMSO alone as a negative control. Plates were then spun at 300×g for 3 minutes again and cultured at 37° C. with 5% CO2. After 72 hours, cell viability was quantified with CellTiter-Glo 2.0 (Promega). After equilibrating cell plates at room temperature for 30 minutes, 25 μL CellTiter-Glo 2.0 reagent was dispensed into each well. Plates were mixed on a shaker for 2 minutes at 500 rpm, followed by a 10-minute incubation at room temperature. Luminescence readings were measured with an EnVision Plate Reader (Perkin Elmer). Data was normalized to DMSO treated cell wells. A four-parameter non-linear regression curve fit was applied to dose-response data in Prism to determine the half maximal growth inhibitory concentration (GI50) of each compound.

[2] = system: HeLa cells (ATCC CCL-2); assay: Cellular growth inhibition assay, HeLa cells (Example 16); assay type: cell-based; conditions: Homo sapiens, 72 hours, CellTiter-Glo 2.0
Description: as §1, §2

[3] = molecular target: T1, EGFR WT (amino acids 669-1011) (Homo sapiens, UniProt P00533); assay: KdELECT binding assay, EGFR WT
T1 construct: purchased Eurofins Discovery (KdELECT); host or cells: bacteria (E. coli BL21-derived, T7 phage)
T1 sequence (P00533 669-1011): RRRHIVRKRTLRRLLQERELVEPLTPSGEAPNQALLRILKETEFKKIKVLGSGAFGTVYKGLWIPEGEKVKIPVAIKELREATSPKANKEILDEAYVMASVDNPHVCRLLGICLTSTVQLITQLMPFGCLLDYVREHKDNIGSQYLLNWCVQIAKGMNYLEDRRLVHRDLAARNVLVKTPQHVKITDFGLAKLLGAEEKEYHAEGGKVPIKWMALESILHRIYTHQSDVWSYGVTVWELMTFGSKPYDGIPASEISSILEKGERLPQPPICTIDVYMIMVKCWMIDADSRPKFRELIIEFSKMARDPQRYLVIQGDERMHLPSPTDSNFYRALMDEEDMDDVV
Description: (§3) Exemplary compounds were tested for ability to bind to EGFR WT (amino acids 669-1011, Accession Number NP_005219.2) or EGFR T790M, L858R (amino acids 669-1011 Accession Number NP_005219.2) expressed from bacteria or mammalian cells, respectively. Compounds were tested using the KdELECT assay at Eurofins Discovery.
(§4) Kinase-tagged T7 phage strains were prepared in an E. coli host derived from the BL21 strain. E. coli were grown to log-phase and infected with T7 phage and incubated with shaking at 32° C. until lysis. The lysates were centrifuged and filtered to remove cell debris. The remaining kinases were produced in HEK-293 cells and subsequently tagged with DNA for qPCR detection. Streptavidin-coated magnetic beads were treated with biotinylated small molecule ligands for 30 minutes at room temperature to generate affinity resins for kinase assays. The liganded beads were blocked with excess biotin and washed with blocking buffer (SeaBlock (Pierce), 1% BSA, 0.05% Tween 20, 1 mM DTT) to remove unbound ligand and to reduce non-specific binding. Binding reactions were assembled by combining kinases, liganded affinity beads, and test compounds in 1x binding buffer (20% SeaBlock, 0.17× PBS, 0.05% Tween 20, 6 mM DTT). Test compounds were prepared as 111× stocks in 100% DMSO. Kd values were determined using an 11-point 3-fold compound dilution series with three DMSO control points. All compounds for Kd measurements are distributed by acoustic transfer (non-contact dispensing) in 100% DMSO. The compounds were then diluted directly into the assays such that the final concentration of DMSO was 0.9%. All reactions performed in polypropylene 384-well plate. Each was a final volume of 0.02 mL. The assay plates were incubated at room temperature with shaking for 1 hour and the affinity beads were washed with wash buffer (1× PBS, 0.05% Tween 20). The beads were then re-suspended in elution buffer (1× PBS, 0.05% Tween 20, 0.5 μM nonbiotinylated affinity ligand) and incubated at room temperature with shaking for 30 minutes. The kinase concentration in the eluates was measured by qPCR.

[4] = molecular target: T2, EGFR T790M, L858R (amino acids 669-1011) (Homo sapiens, UniProt P00533, L858R/T790M); assay: KdELECT binding assay, EGFR T790M, L858R
T2 construct: purchased Eurofins Discovery (KdELECT); host or cells: mammalian cells (HEK-293)
T2 sequence (P00533 669-1011 T790M/L858R): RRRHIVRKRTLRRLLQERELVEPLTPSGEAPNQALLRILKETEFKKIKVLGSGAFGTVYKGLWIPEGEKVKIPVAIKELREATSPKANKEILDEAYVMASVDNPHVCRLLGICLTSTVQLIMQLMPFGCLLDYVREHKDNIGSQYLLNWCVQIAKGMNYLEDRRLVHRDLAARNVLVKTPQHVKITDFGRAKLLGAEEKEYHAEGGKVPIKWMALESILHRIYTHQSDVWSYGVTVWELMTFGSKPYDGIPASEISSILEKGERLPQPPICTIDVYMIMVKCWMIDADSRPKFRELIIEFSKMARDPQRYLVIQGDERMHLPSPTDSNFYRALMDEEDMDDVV
Description: as §3, §4

[5] = molecular target: T3, GSPT1 (Homo sapiens, UniProt P15170+Q96SW2); assay: GSPT1 HiBiT degradation assay; assay type: cell-based; conditions: HEK293 LgBiT GSPT1 HiBiT cells, 6 hours
T3 construct: host or cells: HEK293 LgBiT / GSPT1 HiBiT CRISPR knock-in
T3 sequence (P15170 whole entry): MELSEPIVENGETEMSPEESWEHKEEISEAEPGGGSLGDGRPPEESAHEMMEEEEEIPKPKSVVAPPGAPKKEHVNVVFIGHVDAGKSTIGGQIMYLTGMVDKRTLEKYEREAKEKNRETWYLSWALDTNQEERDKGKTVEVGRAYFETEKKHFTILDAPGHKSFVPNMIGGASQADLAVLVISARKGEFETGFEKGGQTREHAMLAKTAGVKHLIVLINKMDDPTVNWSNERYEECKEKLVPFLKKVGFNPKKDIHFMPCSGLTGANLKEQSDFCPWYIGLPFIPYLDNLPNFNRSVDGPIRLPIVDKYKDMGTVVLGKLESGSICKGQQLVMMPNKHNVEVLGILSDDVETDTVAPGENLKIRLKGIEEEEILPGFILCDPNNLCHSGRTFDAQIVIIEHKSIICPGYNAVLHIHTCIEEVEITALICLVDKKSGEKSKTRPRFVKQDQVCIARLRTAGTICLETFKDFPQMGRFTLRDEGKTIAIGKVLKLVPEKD
T3 sequence (Q96SW2 whole entry): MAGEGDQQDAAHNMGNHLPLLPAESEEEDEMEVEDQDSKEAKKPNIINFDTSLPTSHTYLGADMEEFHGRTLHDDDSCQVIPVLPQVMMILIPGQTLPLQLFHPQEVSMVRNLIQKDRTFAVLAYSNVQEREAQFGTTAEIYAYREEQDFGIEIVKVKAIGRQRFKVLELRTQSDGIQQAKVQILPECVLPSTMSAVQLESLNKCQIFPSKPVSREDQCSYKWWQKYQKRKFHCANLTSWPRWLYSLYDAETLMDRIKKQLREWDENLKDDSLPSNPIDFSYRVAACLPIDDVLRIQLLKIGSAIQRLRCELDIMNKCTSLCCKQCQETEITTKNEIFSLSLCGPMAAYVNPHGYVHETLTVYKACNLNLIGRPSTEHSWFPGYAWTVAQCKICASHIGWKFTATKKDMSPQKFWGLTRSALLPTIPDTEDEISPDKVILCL
T3 sequence (Q16531 whole entry partner): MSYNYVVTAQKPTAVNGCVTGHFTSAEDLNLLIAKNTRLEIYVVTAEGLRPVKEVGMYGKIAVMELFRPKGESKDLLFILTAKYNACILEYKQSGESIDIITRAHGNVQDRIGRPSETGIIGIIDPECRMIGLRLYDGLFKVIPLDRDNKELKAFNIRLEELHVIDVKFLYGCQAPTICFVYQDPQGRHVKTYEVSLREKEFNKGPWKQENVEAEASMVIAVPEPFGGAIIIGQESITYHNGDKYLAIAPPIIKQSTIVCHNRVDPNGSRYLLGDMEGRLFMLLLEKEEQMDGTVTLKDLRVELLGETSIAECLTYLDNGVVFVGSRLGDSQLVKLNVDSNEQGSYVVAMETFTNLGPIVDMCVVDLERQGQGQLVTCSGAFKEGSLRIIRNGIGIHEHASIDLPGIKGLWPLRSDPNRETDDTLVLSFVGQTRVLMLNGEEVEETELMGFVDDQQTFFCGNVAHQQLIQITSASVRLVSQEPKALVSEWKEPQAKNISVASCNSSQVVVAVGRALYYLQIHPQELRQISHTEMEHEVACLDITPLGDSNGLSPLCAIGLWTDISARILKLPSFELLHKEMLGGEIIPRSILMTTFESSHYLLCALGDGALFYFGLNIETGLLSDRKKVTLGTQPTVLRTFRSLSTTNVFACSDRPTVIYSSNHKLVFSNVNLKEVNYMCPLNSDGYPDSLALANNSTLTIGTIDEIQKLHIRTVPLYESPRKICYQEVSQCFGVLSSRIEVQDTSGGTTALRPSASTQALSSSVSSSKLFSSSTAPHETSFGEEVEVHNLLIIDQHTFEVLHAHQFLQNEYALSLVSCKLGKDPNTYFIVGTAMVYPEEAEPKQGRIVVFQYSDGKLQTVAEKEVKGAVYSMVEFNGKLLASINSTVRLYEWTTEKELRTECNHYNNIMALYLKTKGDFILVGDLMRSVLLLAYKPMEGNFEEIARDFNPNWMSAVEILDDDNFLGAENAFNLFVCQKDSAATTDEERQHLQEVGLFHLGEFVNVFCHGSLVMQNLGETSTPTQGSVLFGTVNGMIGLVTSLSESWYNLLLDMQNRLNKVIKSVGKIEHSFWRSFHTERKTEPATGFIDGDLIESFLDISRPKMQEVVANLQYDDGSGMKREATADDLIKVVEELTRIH
From the text: Promega developed a HEK293 cell line that constitutively expresses LgBiT protein and GSPT1_HiBiT fusion protein. When both proteins are present, the HiBiT portion of the fusion protein combines with LgBiT protein to form a functional luciferase enzyme. Endurazine, a cell permeable small molecule, is converted by cellular esterases into furimazine, which the luciferase enzyme uses as a substrate to generate luminescence. When GSPT1 is degraded, the HiBit is also degraded. This prevents formation of fully functional luciferase, leading to a loss in luminescence. GSPT1 degradation therefore correlates with a decrease in luminescence and can be measured continuously over time. The concentration of compound at which 50% GSPT1 degradation occurs (DC50) may be calculated using this system.
HEK293 LgBiTGSPT1 HiBiT CRISPR Knock-in cells were cultured in DMEM Media supplemented with 10% Heat-inactivated FBS, 1% Penicillin/Streptomycin, 200 μg/mL hygromycin and stored in a humidified incubator set at 37° C. and 5% CO2. 18-24 hours prior to compound treatment, cells were seeded at 1000 cells/well in a 384-well tissue culture-treated white plates in 25 μL media lacking selection for 18-24 hours. The plates were spun at 300 g for 30 seconds and stored in the incubator overnight. After 24 hours, compounds are titrated in DMSO and added to media supplemented with endurazine substrate. A 25 μL aliquot of 2× compound/endurazine in media is then added to the 384-well microplate with seeded cells. (Endurazine is used at a final concentration of 0.5×). The plate was spun at 300 g for 30 seconds and stored in the incubator. After 6 hours, the plate was read on a Perkin Elmer MultiMode Plate Reader Envision 2105 to measure luminescence signal. Data were plotted in Prism (Graphpad) and the concentration of compound at which 50% GSPT1 degradation occurs (DC50) was calculated.

[6] = molecular target: T4, EGFR T790M/L858R kinase domain (Homo sapiens, UniProt P00533, L858R/T790M); assay: EGFR cellular target engagement assay (HEK293 cells stable for EGFR T790M, L858R); assay type: cell-based; conditions: 6 hours, read-out: TE50 (the source's name)
T4 construct: EGFR (amino acids 696-1022, T790M, L858R); expressed in transfected cells; host or cells: HEK293, lentiviral transduction, puromycin selection
T4 sequence (P00533 696-1022 T790M/L858R): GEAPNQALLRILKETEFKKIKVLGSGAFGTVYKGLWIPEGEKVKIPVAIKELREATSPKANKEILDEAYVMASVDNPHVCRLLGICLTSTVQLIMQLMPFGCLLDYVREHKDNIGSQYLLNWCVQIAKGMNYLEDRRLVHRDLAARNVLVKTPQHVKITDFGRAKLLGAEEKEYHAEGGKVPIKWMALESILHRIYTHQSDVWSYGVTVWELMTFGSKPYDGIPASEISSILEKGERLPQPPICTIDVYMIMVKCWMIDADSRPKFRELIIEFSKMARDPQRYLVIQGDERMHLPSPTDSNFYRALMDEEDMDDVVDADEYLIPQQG
Description: HEK293 cells were cultured in DMEM (Gibco 11995), supplemented with 10% Heat-inactivated FBS (Gibco A38400-01) and 1% Penicillin/Streptomycin (Gibco 15140-122) at 37° C. with 5% CO2 in a humidified tissue culture incubator. Cells were made stable for EGFR (amino acids 696-1022, T790M, L858R) by lentiviral transduction, followed by selection with 1 μg/ml Puromycin Dihydrochloride (Thermo A1113803). Cells were seeded at 30,000 cells/ml in 0.1 ml of complete media in Poly-D-lysine-treated 96-well plates and incubated overnight. Cells were treated with increasing concentrations of compound and let incubate at 37C and 5% CO2 for 6 hours, after which media was aspirated, washed with 1×PBS and cells were lysed in RIPA Lysis and Extraction Buffer (Thermo 89901) supplemented with 5 mM MgCl2, Protease and Phosphatase inhibitor cocktail (Thermo 1861281), and Universal Nuclease (Thermo 88700). Plates with RIPA were shaken at 4° C. at 600 rpm for 15 min. After shaking samples, they were collected and spun down at 21,000 g for 15 min at 4° C. Following centrifugation, […] of lysate was added to Laemmli Sample Buffer (Bio-Rad 1610747) plus 10% beta-mercaptoethanol, boiled for 15 minutes at 65° C. and loaded onto 4-20% Mini-PROTEAN TGX™ Precast Protein Gels (Bio-Rad). Protein was transferred to a nitrocellulose membrane (Thermo LC2000) using the iBlot 2 Dry Blotting System (Thermo). After transfer, membranes were washed in 1× TBST (Bioland Scientific LLC TBST0103) 3× for 5 min. Following the wash, blocking buffer (Rockland MB-070) was added for 1 hour at room temperature. Primary antibodies against EGFR (Cell Signaling Technology 3197) and actin (Cell Signaling Technology 3700S) were added overnight at 4° C. Membranes were then washed again 3× for 5 min in 1× TBST. Secondary antibodies (LI-COR 926-68072 and 926-68073) were added and shaken for 1 hr at room temperature. Membranes were then washed 3× for 5 min in 1×TBST and developed. Membranes were placed on an Odyssey imager (LI-COR).

[7] = system: CCNK; assay: Payload release assay (DC50 readout), CCNK degradation in the presence of recombinant target protein; assay type: cell-based; conditions: II-series and V-4 (CCNK readout inferred)
Description: Exemplary compounds were tested for ability to cause degradation of CCNK or GSPT1 in the presence of recombinant target protein.
HEK293 LgBiT/GSPT1 HiBiT CRISPR Knock-in cells (Promega) were cultured in DMEM (Gibco 11995), supplemented with 10% Heat-inactivated FBS (Gibco A38400-01) and 1% Penicillin/Streptomycin (Gibco 15140-122) and 200 Vg/ml Hygromycin B (Gibco 10-687-010) at 37° C. with 5% CO2 in a humidified tissue culture incubator. HEK293 LgBiT/CCNK HiBiT cells (in-house, described above) were cultured in DMEM (Gibco 11995), supplemented with 10% Heat-inactivated FBS (Gibco A38400-01) and 1% Penicillin/Streptomycin (Gibco 15140-122) 200 Vg/ml Hygromycin B (Gibco 10-687-010), and 1 Vg/ml Puromycin Dihydrochloride (Thermo A1113803) at 37° C. with 5% CO2 in a humidified tissue culture incubator. Cells were seeded (1000 cells/well for HEK293 LgBiT/GSPT1 HiBiT cells or 3000 cells/well for HEK293 LgBiT/CCNK HiBiT cells) 384-well, tissue culture-treated white plates (Perkin Elmer 6007680) in 10 μL media lacking selection for 18-24 hours. Plates were spun at 300 g for 30 seconds and stored in the incubator overnight. After 24 hours, a 5 μL aliquot of recombinant target protein (final concentration of either 5 μM KRAS amino acids 1-169, C51S, C80L, C118S, G12C or 3 μM EGFR amino acids 696-1022 or 3 μM EGFR amino acids 696-1022, T790M, L858R) was added to wells, followed immediately by a 5 μL aliquot of 4× compound-containing medium supplemented with Endurazine Substrate (Promega N2570) was added in each well, at a final top concentration of 10 μM test compound and 0.5× Endurazine, with 4-fold dilutions, using DMSO alone as a negative control. Plates were then spun at 300×g for 3 minutes again and cultured at 37° C. with 5% CO2. After 6 hours the plate was read on Envision MultiMode Plate Reader 2105 (Perkin Elmer) to measure luminescence signal. Data was normalized to DMSO treated cell wells. A four-parameter non-linear regression curve fit was applied to dose-response data in Prism to determine the half maximal growth inhibitory concentration (GI50) of each compound.

Structure (SMILES)	GI50 [1] [µM]	GI50 [2] [µM]	Kd [3] [µM]	Kd [4] [µM]	DC50 [5] [µM]	EC50 [6] [µM]	DC50 ([7]; 0 μM recombinant EGFR T790M L858R, read-out: DC50 at 0 μM EGFR T790M L858R) [µM]	DC50 ([7]; 0 μM recombinant EGFR WT, read-out: DC50 at 0 μM EGFR WT) [µM]
C=C(CN(C(=O)NCc1ccc2c(c1)CN(C1CCC(=O)NC1=O)C2=O)c1ccc(C)c(Cl)c1)C(=O)N[C@@H]1CN(c2nc(Nc3cn(C)nc3OC)c3ncn(C)c3n2)C[C@H]1F (stereo partly drawn) [Compound I-41]	1.5 to 10	> 10	> 2.5	> 2.5	> 2.5	> 10		
C=C(Cn1c(CNc2nc(N3CCN(C)CC3)nc3c(Br)cnn23)nc2c(F)c(F)ccc21)C(=O)N[C@@H]1CN(c2nc(Nc3cn(C)nc3OC)c3ncn(C)c3n2)C[C@H]1F [II-182]	1.5 to 10	1.5 to 10	> 2.5	> 2.5			5 to 10	5 to 10
